In patent US11161876B2, “Anti-inflammatory nanofibers” (Northwestern University, priority 2015, dated 2021):
“Also recorded” adds a separate entry of the source. * marks the point of attachment. C16 alkyl = CCCCCCCCCCCCCCCC*

Columns and labels:
CD68+ macrophages = test: Immunofluorescence quantification of CD68+ macrophages in regenerated bladder tissue; format: in vivo, rat
Protocol: (§1) Athymic female rats (weighing ˜200 g and 8-10 weeks old; National Cancer Institute Animal Production Program) underwent bladder augmentation (ref. 15; herein incorporated by reference in its entirety). Athymic rats were chosen for this study to solely examine the innate immune response to inflammation without influence of the adaptive immune response. In order to induce anesthesia, animals were given intraperitoneal injections of 60 mg/kg ketamine and 5 mg/kg xylazine. A second injection consisting of Buprenex (1 mg/kg) was administered subcutaneously to alleviate any pain/discomfort during and following surgical procedures. An approximate 1.5 cm midline vertical skin incision was created to expose the abdominal fascia and muscles. This was immediately followed by the separation of the wall leading to the identification of the bladder. An approximate 70% supratrigonal cystectomy was performed from anterior to posterior creating a clamshell. Immediately prior to bladder augmentation procedures, samples of the pro-inflammatory biological scaffold, small intestinal submucosa (SIS (0.5×0.5 cm); Cook Biotech.) (refs. 12,13,16; herein incorporated by reference in their entireties) were thoroughly dip-coated separately in one of the previously described AIF-PAs following gelation procedures. The sections of SIS were dip-coated for approximately 20 seconds and allowed to adhere to the SIS for an additional 30 seconds. Dip-coating procedures were performed at room temperature in air. The cystectomized bladder defect was then augmented with: 1) SIS (non-AIF-PA coated SIS; n=8 animals over both time-points); 2) AIF-PA1 coated SIS (denoted as SIS/AIF-PA1; n=11 animals over both time-points); 3) AIF-PA2 coated SIS (denoted as SIS/AIF-PA2; n=8 animals over both time-points); 4) AIF-PA3 coated SIS (denoted as SIS/AIF-PA3; n=3); 5) AIF-PA4 coated SIS (denoted as SIS/AIF-PA4; n=3 animals); 6) AIF-PA5 coated SIS (denoted as SIS/AIF-PA5; n=3 animals); and 7) AIFC-PA6 coated SIS (denoted as SIS/AIFC-PA6; n=9 animals over both time-points). The bladder was finally covered with omentum after being closed in a watertight manner utilizing 7-0 polyglactin suture. The abdominal wall was then closed in a single layer with 5-0 ethibond running suture and the skin re-approximated with 9 mm autoclips. Each group was sacrificed at 10 day and 5 week time-points.
(§2) Tissue sections comprised of SIS alone, SIS/AIF-PA1, SIS/AIF-PA2, and SIS/AIF-PA6 augmentations were subjected to immunofluorescence staining by initially undergoing antigen retrieval which consisted of 15 min of boiling in citrate buffer (0.01M citrate solution, pH 6.0 with 0.05% Tween-20) followed by cooling at room temperature for approximately 20 minutes. The antibody staining process consisted of a blocking step for 15 min in bovine serum albumin (BSA, 5 mg/ml) followed by a 40 minutes incubation at room temperature with the primary antibody. After washing with DPBS, slides were incubated for 30 min with a secondary antibody and eventually rinsed with DPBS and air dried. Slides were mounted with Vectashield (Vector Laboratories). Primary antibodies were directed against epitopes for the inflammatory markers CD68 (macrophage) (refs. 18,19; herein incorporated by reference in their entireties) MPO (neutrophil) (ref. 20; herein incorporated by reference in its entirety) or the inflammation-related proteins IL1β, TNFα, IL-10, IL-13, CD206 (M2 macrophage) (refs. 21-25; herein incorporated by reference in their entireties) and CD86 (M1 macrophage) (ref. 26; herein incorporated by reference in its entirety). Antibodies directed against the ECM in regenerating bladder tissue (including COL4A3 and fibronectin) were also utilized. Alexa Red 555 or FITC conjugated secondary antibodies (Molecular Probes) were utilized for visualization (ref. 15; herein incorporated by reference in its entirety). […]

CD86+ M1 macrophages = test: M1 macrophage subtype (CD86) distribution in regenerating bladder tissue; format: in vivo, rat; conditions: for M1 macrophage levels, in words: 10 days to 5 weeks
Protocol: as §1, §2

IL-1β = IL-1β expression in regenerated bladder tissue (immunofluorescence); format: in vivo, rat; conditions: for Cytokine expression (shown as percentage of cells staining positive) Pro-inflammatory IL-1β: 5 weeks post-augmentation, means ± SE; for percentage of cells staining positive for IL-1β: 10 days post-augmentation
Protocol: as §1, §2

TNFα = TNFα expression in regenerated bladder tissue (immunofluorescence); format: in vivo, rat; conditions: for Cytokine expression (shown as percentage of cells staining positive) Pro-inflammatory TNFα: 5 weeks post-augmentation, means ± SE; for percentage of cells staining positive for TNFα: 10 days post-augmentation
Protocol: as §1, §2

[1] = tested on: Rat Bladder Augmentation Model; test: Urodynamic testing (UDS) of augmented bladders; format: in vivo; conditions: for intravesical pressure during voiding: post-augmentation
Protocol: as §1
The bladders of anesthetized athymic rats were exposed through the abdomen as previously described. A 20 gauge cannula (Becton Dickinson and Co.) was delicately placed into the bladder through the dome in order to obtain intravesical measurements. The cannula was connected to the Pump 11 Elite Syringe Pump (Harvard Apparatus) and to a physiological pressure transducer (SP844, MEMSCAP). The pressure transducer was connected to a bridge amplifier (Model FE221; AD Instruments). Continuous reading of the transvesical pressure was measured and plotted using LabChart 7.3 software (AD Instruments). The fill rate for each study ranged from 150-200 uL per minute. Bladder capacity was measured by a modified protocol (ref. 13; herein incorporated by reference in its entirety). Sterile DPBS was injected into the bladder using a 27 gauge needle in 50 μl increments until fluid leakage was observed from the urethra of the animal. The total volume injected was then noted. This procedure was repeated at least three times per animal. Urine was evacuated from the bladder prior to the start of any bladder capacity measurements utilizing a sterile 27 gauge needle. Urodynamic and bladder capacity measurements were performed immediately prior to augmentation procedures and immediately prior to euthanization.
Bladders underwent urodynamic testing (UDS) pre- and post-augmentation. Bladders were gradually filled with sterile saline until a bladder contraction occurred. Bladder pressures rose during the filling until bladder contractions occurred at intravesical pressures of 30-40 cm H2O (FIG. 5, panels A, C, E, and G). […]

CD206+ M2 macrophages = test: M2 macrophage subtype (CD206) distribution in regenerating bladder tissue; format: in vivo, rat; conditions: for M2 macrophage levels, in words: 10 days to 5 weeks
Protocol: as §1, §2

MPO+ neutrophils = test: Immunofluorescence quantification of MPO+ neutrophils in regenerated bladder tissue; format: in vivo, rat
Protocol: as §1, §2

[2] = tested on: Rat Bladder Augmentation Model; test: Bladder capacity measurement of augmented bladders; format: in vivo; conditions: 5 weeks post-augmentation vs pre-surgery; means ± SE
Protocol: Athymic female rats (weighing ˜200 g and 8-10 weeks old; National Cancer Institute Animal Production Program) underwent bladder augmentation (ref. 15; herein incorporated by reference in its entirety). Athymic rats were chosen for this study to solely examine the innate immune response to inflammation without influence of the adaptive immune response. In order to induce anesthesia, animals were given intraperitoneal injections of 60 mg/kg ketamine and 5 mg/kg xylazine. A second injection consisting of Buprenex (1 mg/kg) was administered subcutaneously to alleviate any pain/discomfort during and following surgical procedures. An approximate 1.5 cm midline vertical skin incision was created to expose the abdominal fascia and muscles. This was immediately followed by the separation of the wall leading to the identification of the bladder. An approximate 70% supratrigonal cystectomy was performed from anterior to posterior creating a clamshell. Immediately prior to bladder augmentation procedures, samples of the pro-inflammatory biological scaffold, small intestinal submucosa (SIS (0.5×0.5 cm); Cook Biotech.) (refs. 12,13,16; herein incorporated by reference in their entireties) were thoroughly dip-coated separately in one of the previously described AIF-PAs following gelation procedures. The sections of SIS were dip-coated for approximately 20 seconds and allowed to adhere to the SIS for an additional 30 seconds. Dip-coating procedures were performed at room temperature in air. […]
The bladders of anesthetized athymic rats were exposed through the abdomen as previously described. […] Continuous reading of the transvesical pressure was measured and plotted using LabChart 7.3 software (AD Instruments). […] Bladder capacity was measured by a modified protocol (ref. 13; herein incorporated by reference in its entirety). […]

IL-13 = IL-13 expression in regenerated bladder tissue (immunofluorescence); format: in vivo, rat; conditions: for Cytokine expression (shown as percentage of cells staining positive) Anti-inflammatory IL-13: 5 weeks post-augmentation, means ± SE; for percentage of cells staining positive for IL-13: 10 days post-augmentation
Protocol: as §1, §2

[3] = tested on: Rat Bladder Augmentation Model; test: Blood vessel quantification in areas of bladder tissue regeneration; format: in vivo; conditions: means±SE
Protocol: as §1
Trichrome sample images were opened with Adobe Photoshop CS3 and were initially characterized utilizing a Nikon Eclipse 50i Microscope in addition to Spot Advanced Imaging Software. Vessel numbers were quantified utilizing the pen tool based upon n=10 images per graft in regenerated areas. Individual vessels were selected manually and subsequently quantified using the image histogram tool to acquire pixel density for each vessel. Data is represented as mean number of vessels/mm^2 (means±SE).

[4] = post-augmentation vs pre-augmentation

Row | Substance | percentage of cells CD68+ (CD68+ macrophages; 5 weeks post-augmentation) | percentage of cells CD68+ (CD68+ macrophages; 10 days post-augmentation) | number of M1 macrophages (CD86+ M1 macrophages; 5W post-augmentation) | M1 macrophage levels, in words (CD86+ M1 macrophages) | Cytokine expression (shown as percentage of cells staining positive) Pro-inflammatory IL-1β (IL-1β) | percentage of cells staining positive for IL-1β (IL-1β) | Cytokine expression (shown as percentage of cells staining positive) Pro-inflammatory TNFα (TNFα) | percentage of cells staining positive for TNFα (TNFα) | intravesical pressure during voiding [1] | intravesical / voiding pressures, in words [1, 4] | number of M2 macrophages (CD206+ M2 macrophages; 5W post-augmentation) | M2 macrophage levels, in words (CD206+ M2 macrophages) | percentage of cells positive for MPO (MPO+ neutrophils; 5 weeks post-augmentation) | percentage of cells positive for MPO (MPO+ neutrophils; 10 days post-augmentation) | Bladder Capacity Recovery [2] | Cytokine expression (shown as percentage of cells staining positive) Anti-inflammatory IL-13 (IL-13) | percentage of cells staining positive for IL-13 (IL-13) | number of vessels in regenerated tissue ([3]; 5W post-augmentation) | number of vessels in regenerated tissue ([3]; 10D post-augmentation) | further results
1 | C16-VVVAAAEEEHDMNKVLDL (SEQ ID NO:2) ({C16 alkyl}-VVVAAAEEEHDMNKVLDL-NH2) [SIS/AIF-PA2, anti-inflammatory peptide amphiphile, tested dip-coated on small intestinal submucosa (SIS) scaffold] | 16.5±1.6% | 23.1±3.3% | 389.4±62.6 cells/mm^2 | Comparatively low numbers | 11.5 ± 2.7 percentage | 21.2±2.4% | 14.6 ± 1.7 percentage | 26.3±2.5% | approximately 35 cm H2O | very modest decrease in bladder intravesical pressure | 224.7±39.0 cells/mm^2 | Comparatively low numbers | 7.2±1.1% | 9.0±0.5% | 104.4 ± 6.7% | 32.0 ± 1.8 percentage | 41.2±2.2% | 96.7±4.4 vessels/mm^2 | 71.5±6.7 vessels/mm^2 | –
2 | C16-VVVAAAEEEKLMSQKMVD (SEQ ID NO:6) ({C16 alkyl}-VVVAAAEEEKLMSQKMVD-NH2) [SIS/AIFC-PA6, reference compound] | 42.0±2.6% | – | 957.7±106.2 cells/mm^2 | – | 42.9 ± 1.8 percentage | 63.3±2.4% | 42.8 ± 2.2 percentage | 65.1±5.1% | – | unchanged or even slightly elevated; also recorded: failed to decrease intravesical pressures | 539.3±46.7 cells/mm^2 | – | 17.6±1.8% | – | 105.4 ± 5.1% | 20.4 ± 2.6 percentage | 28.6±3.0% | 53.3±4.4 vessels/mm^2 | 37.0±2.3 vessels/mm^2 | number of M1 macrophages (CD86+ M1 macrophages; 10D post-augmentation): 986.9±18.1 cells/mm^2; number of M2 macrophages (CD206+ M2 macrophages; 10D post-augmentation): 842.5±18.9 cells/mm^2
3 | C16-VVVAAAEEEMQMKKVLDS (SEQ ID NO:1) ({C16 alkyl}-VVVAAAEEEMQMKKVLDS-NH2) [SIS/AIF-PA1, anti-inflammatory peptide amphiphile, tested dip-coated on small intestinal submucosa (SIS) scaffold] | 17.6±1.8% | 33.4±2.0% | 343.4±45.4 cells/mm^2 | dropped considerably; also recorded: significant decline over time | 12.9 ± 2.0 percentage | 28.2±2.4% | 17.4 ± 2.9 percentage | 32.8±2.5% | approximately 25 cm H2O | decreased intravesical pressures | 301.7±23.0 cells/mm^2 | further decreased by 5 weeks | 5.2±0.7% | 6.9±0.7% | 112.1 ± 3.3% | 26.1 ± 2.7 percentage | 48.2±2.8% | 90.7±4.5 vessels/mm^2 | 71.0±1.5 vessels/mm^2 | bladder compliance, in words [1, 4]: higher bladder compliance; also recorded: increase in compliance
